Here are results for 21 compounds from patent publication US7893094B2, “Amphiphilic pyridinium compounds, method of making and use thereof” (The Henry M. Jackson Foundation for the Advancement of …, priority 2003, dated 2011).

Where two headings read alike, the source gives them in different places. Bounds are passed on as bounds.

The test deals with IL-8 secretion from CF IB-3 cells. As to the kind of experiment: Suppression of spontaneously-elevated (constitutive) IL-8 secretion in IB-3 CF lung epithelial cells, IL-8 ELISA normalised to DNA. The test is classed as cell-based. The conditions noted are these: for loss of potency: IL-8 secretion, relative to the most potent analogue, Compound 3. The protocol:
The CF lung epithelial cells IB3 and S9 have been previously described [Zeitlin et al., 1991; Eidelman et al., 2001a)]. Both […] and S9 cells were grown in serum-free LHC-8 medium (Biofluids), formulated without gentimycin. CF tracheal epithelial cells (2CFTE29o-) were obtained from University of Vermont. The latter cells were grown in EMEM (Biofluids), supplemented with 10% fetal bovine serum (FBS) and 1% Penicillin G-Streptomycin.
Initial assays for dug effects in the screening paradigm were performed in duplicate at 10, 3, 1, and 0.3 μM concentrations on IB-3 cells grown in 96 well microtiter plates. Each individual plate contained IB-3 and IB-3/S9 cells to set the boundary conditions of the assay. CPX and DAX, 5 μM each, were included in separate wells as positive controls. “Hits” in the screen were chosen on the basis of at least a 50% reduction in constitutive IL-8 secretion. Following a positive retest, candidate compounds were taken off-line for more detailed analysis under the exact same assay conditions. […] In most circumstances we use a maximum final solvent concentration of 0.1% DMSO or 0.01% ETOH.
The details of this assay have been described in a previous publication (Eidehman et la., 2001 a). Briefly, IB-3 cells are grown in 96 well microtiter plates to 80% confluency. Drugs, diluted in LHC-8 medium at the given concentrations, are added, and the cells allowed to incubate for an additional 24 hours. To initiate the experiment, cells are washed with fresh LHC-8 medium, and then incubated for an additional 16 hours in the same medium supplemented with drug. At the end of the time period, the supernatant solutions are collected and assayed for IL-8 by and ELISA assay. Alternatively, the samples are immediately frozen at −80° C. […] The IL-8 ELISA assay was assembled from bulk materials purchased from R&D, and performed exactly according to the manufacturers specifications. To detect possible drug toxicity on cells, as well as normalize to total cells per well, we measure the double stranded DNA content of cells attached to the plate after removal of supernatant solutions for IL-8 assay. Cells remaining on the plate are then fixed with 10% formalin for 30 minutes at room temperature before being incubated with propidium iodide (kit from Boehringer Mannheim). Propidium iodide content in each well is then measured with an automated fluorescence plate reader (FLUOstar Optima, MBG Lab Technologies). Final IL-8 data are calculated as a ratio of secreted IL-8 to DNA for each well. On occasion, cell proliferation assays are also carried out using the XTT assay (Roche).
Background: In an ELISA, binding on a coated surface is turned into a signal by an enzyme label.

[1] abbreviates: inhibition of IL-8 secretion from CF IB-3 cells, Table 3 prints no unit (b104 gives μM for Compound 3), read-out: IC50.

What is called IC50 is the point on the concentration scale where inhibition reaches its midpoint. In the case of `CC(C(=O)OCCCCCCCC[n+]1ccccc1)c1ccc(N)cc1.I.[I-]` (stereo not drawn) [Compound 17, 8-Pyridinium-n-octyl α-methyl-2-[4-ammonium-phenyl]acetate iodide], the “activity on IL-8 secretion/production, in words” value is “eliminated activity”. In addition, the IC50 under setting [1] was over 30 µM. With “R-8-Pyridinium-n-octyl 2-hydroxy-3-phenylpropionate iodide [Compound 12]”, the “activity on IL-8 secretion/production, in words” value is given as “no activity was evident”. In addition, the IC50 under setting [1] is over 30 µM.

Consider “S-8-Pyridinium-n-octyl 2-hydroxy-3-phenylpropionate iodide [Compound 13]”, for which the “activity on IL-8 secretion/production, in words” value is on record as “no activity was evident”. Also, under setting [1], the IC50 was over 30 µM. `CC(C(=O)OCCCCCCCC[n+]1ccccc1)c1ccc(NC(=O)OC(C)(C)C)cc1.[I-]` (stereo not drawn) [Compound 16]: the “activity on IL-8 secretion/production, in words” value is recorded as “retention of the activity”. The IC50 under setting [1] was determined as 4.6 ± 0.9 µM. Consider “R-8-Pyridinium-n-butyl α-methyl-2-phenylacetate iodide [Compound 1]”, for which the IC50 under setting [1] was over 30 µM. Consider “R-8-Pyridinium-n-octyl α-hydroxy-α-methyl-2-phenylacetate iodide [Compound 6]”, for which the “activity on IL-8 secretion/production, in words” value was “failed to restore the activity”. Moreover, the half-inhibitory concentration (IC50) under setting [1] is over 30 µM.

With “8-(3-carboxyamido-pyridinium)-n-octylα-methyl-2-(4[2-methylpropyl]benzene)-acetate iodide [Compound 18]”, under setting [1], the IC50 is 5.56 ± 0.98 µM. With “S-8-Pyridinium-n-octyl α-methyl-2-phenylacetate iodide [Compound 5]”, the “activity on IL-8 secretion/production, in words” value is given as “much less active”. In addition, the IC50 under setting [1] is over 25 µM. As to “8-Pyridinium-n-octyl benzoate iodide [Compound 11]”, under setting [1], the IC50 was over 30 µM. “R-8-Pyridinium-n-octyl α-methyl-2-phenylacetate iodide [Compound 3]”: the half-inhibitory concentration (IC50) (IB-3 CF cells, read-out: IC50, inhibition of IL-8 secretion) turned out to be 0.35 µM. Moreover, the “stereoselectivity of action in favor of the (R)-isomer” value (IL-8 production, Compound 3 (R) versus its enantiomer Compound 5) was over 70 fold.

Regarding “S-8-(4-n-Prolpylpyridinium)-n-octyl α-methyl-2-(4-[2-methylpropyl]benzene)acetate bromide [Compound 19]”, the IC50 under setting [1] was 3.3 ± 0.5 µM. Still for that read-out and setting: with “R-8-Pyridinium-n-decyl α-methyl-2-phenylacetate iodide [Compound 4]” the figure was 2.52 ± 0.39 µM; with `C[C@H](OCc1ccccc1)C(=O)OCCCCCCCC[n+]1ccccc1` [Compound 10, S-8-Pyridinium-n-octyl α-benzyloxy-2-propionate iodide], over 30 µM. Turning to “S-8-Pyridinium-n-octyl α-methoxy-2-phenylacetate iodide [Compound 9]”, the “activity on IL-8 secretion/production, in words” value is “failed to restore the activity”. The IC50 under setting [1] was over 30 µM. For “R-8-Pyridinium-n-hexyl α-methyl-2-phenylacetate iodide [Compound 2]”, the IC50 under setting [1] was over 30 µM.

Regarding “S-8-Pyridinium-n-octyl α-methyl-2-(4-[2-methylpropyllbenzeneacetate bromide [Compound 15]”, the loss of potency is listed as 6 fold. In addition, under setting [1], the IC50 was 2.2 ± 0.8 µM. On to “S,S-1.8-di((α-methyl 2-(4-[2-methylpropyl]phenyl acetoxy)-n-octane [Compound 22]”, for which the “activity on IL-8 secretion/production, in words” value was “eliminated the activity”. Besides, under setting [1], the IC50 is over 30 µM. The corresponding values for “R-8-Pyridinium-n-octyl α-ethyl-2-phenylacetate iodide [Compound 8]” are “eliminated the activity” and 3.16 ± 0.52 µM. Turning to `CC(C)Cc1ccc([C@H](C)C(=O)OCCCCCCCC[N+]2(C)CCOCC2)cc1.[Br-]` [Compound 21, S-8-[N-Methylmorpholinium-n-octyl α-methyl-2-(4]2-methylpropyl]benzene)acetate bromide], the IC50 under setting [1] worked out at 24 ± 1 µM. Regarding “8-Pyridinium-n-octyl propionate iodide [Compound 7]”, the loss of potency came to 34 fold. The IC50 under setting [1] stood at 12 ± 0.8 µM. With “S-8-(4-2-hydroxy-ethyl)pyridinium)-n-octyl α-methyl-2-(4-[2-methylpropyl]benzene)acetate bromide [Compound 20]”, the IC50 under setting [1] is 18 ± 0.9 µM.
